Test results: patent US20130131161A1, “METHODS AND COMPOSITIONS FOR CARDIOVASCULAR DISEASES AND CONDITIONS” (priority 2009, published 2013)
Values joined by “and” are separate entries in the source; they are usually repeats but may differ in a detail not shown here. Equal entries are not always repeated.

System: Human umbilical vein endothelial cells (HUVECs)
Assay: eNOS activity analysis: NO, ONOO− and NO/ONOO− release from HUVECs of 50 genotyped donors in response to LA-419 (Example 2)
Type: cell-based
Method: Concurrent measurements of NO and ONOO^− were carried out with tandem electrochemical nanosensors combined into one working unit with a total diameter of 200-500 nm (FIG. 1). Their design was based on previously developed and well-characterized chemically modified carbon-fiber technology (Malinski and Taha, 1992; Lvovich and Scheeline, 1997). Each of the nanosensors was made by depositing a sensing material on the tip of a carbon fiber (length 4-5 μm, diameter 0.2-0.5 μm). The fibers were sealed with nonconductive epoxy and electrically connected to copper wires with conductive silver epoxy. A conductive film of polymeric nickel (II) tetrakis(3-methoxy-4-hydroxyphenyl)porphyrin for the NO-sensor and polymeric film of Mn (III) [2.2]paracyclophanylporphyrin was used for the ONOO^−-sensor.
A module of NO/ONOO^− nanosensors (diameter 1-2 μm) with a platinum wire (0.1 mm) counter electrode and saturated calomel reference electrode (SCE) were applied. Differential pulse voltammetry (DPV) and amperometry were performed with a computer-based Gamry VFP600 multichannel potentiostat. DPV was used to measure the basal NO and ONOO^− concentrations, and amperometry was used to measure changes in NO and ONOO^− concentrations from its basal level with time. The DPV current at the peak potential characteristic for NO oxidation (0.65 V) and ONOO^− reduction (−0.45 V) was directly proportional to the local concentrations of these compounds in the immediate vicinity of the sensor. Linear calibration curves (current vs. concentration) were constructed for each sensor from 10 nM to 3 μM before and after measurements with aliquots of NO and ONOO^− standard solutions, respectively. The detection limit of the sensors was 1.0 nM.
The quantification of each analyte (concentration in nM) was performed using a maximum current from amperograms and standard calibration curves. A reproducibility of measurements with nanosensors is relatively high (between 5-12%). […] The sensors were slowly raised 5±2 μm from the surface of a single endothelial cell. The eNOS agonist, calcium ionophore A23187 (CaI) as well as the different drugs were then added to the surrounding media at the cell surface with a nanoinjector that was also positioned by a computer controlled-micromanipulator.
This example describes the genotype-specific response of the three major eNOS variants to 1 μM and 5 μM concentrations of LA-419. The three major genetic polymorphisms studied were the Glu298Asp variant (E298D or 894G→T) in exon 7 of […], the −786T→C variant in the promoter region, and the intron 4 polymorphism (VNTR). All of these variants have possible effects on the cardiovascular system and endothelial dysfunction. For this study, human umbilical vein endothelial cells (HUVECs) from 50 donors between 18 and 32 years of age were used.
For the analysis several analysis techniques were employed. First, the effect of genotype on NO and ONOO^− release was explored within the different concentrations of LA-419 (control, 1 μM, 5 μM), calculated as the average peak release (nmols/L) of NO, ONOO^−, and NO/ONOO^−. The effect of genotype on the net increase in NO, ONOO^−, and NO/ONOO^− for LA-419 (1 μM and 5 μM) as compared to control was also measured. In addition, an analysis was done on the effect of genotype on the % change in NO, ONOO^−, and NO/ONOO^− production for LA-419 (1 μM and 5 μM), calculated as:
% Change=[(avg. LA-419−avg. control)/(avg. control)]*100
Finally, an evaluation was undertaken concerning the effect of genotype on the production of NO, ONOO^−, and NO/ONOO^− as the fold difference of control for LA-419 (1 μM and 5 μM), calculated as:
Fold Difference=(avg. LA-419)/(avg. control)
Within each calculation technique the results were compared for statistical significance using a non-parametric ANOVA Kruskal-Wallace test or a non-parametric Mann-Whitney U test. Statistical significance was set at a p-value <0.05 in a two-tailed distribution. […]

[1] = (LA-419 1 μM)/(control), T-786C T/C & C/C, n=27
[2] = (LA-419 1 μM)/(control), T-786C T/C, n=23
[3] = (LA-419 1 μM)/(control), T-786C T/T & T/C, n=45
[4] = (LA-419 1 μM)/(control), T-786C T/T, n=22
[5] = (LA-419 5 μM)/(control), Combination of all G894T + T-786C genotypes but G/G + T/T, n=31
[6] = (LA-419 5 μM)/(control), Combination of all G894T + T-786C genotypes but T/T + C/C, n=46
[7] = (LA-419 5 μM)/(control), G894T + T-786C G/G + T/C, n=8
[8] = (LA-419 5 μM)/(control), G894T + T-786C G/G + T/T, n=18
[9] = (LA-419 5 μM)/(control), G894T + T-786C G/T + C/C, n=1
[10] = (LA-419 5 μM)/(control), G894T + T-786C G/T + T/C, n=13
[11] = (LA-419 5 μM)/(control), G894T + T-786C G/T + T/T, n=4
[12] = (LA-419 5 μM)/(control), G894T + T-786C T/T + C/C, n=1
[13] = (LA-419 5 μM)/(control), G894T + T-786C T/T + C/C, n=3
[14] = (LA-419 5 μM)/(control), G894T + T-786C T/T + T/C, n=2
[15] = (LA-419 5 μM)/(control), G894T G/G & G/T, n=44
[16] = (LA-419 5 μM)/(control), G894T G/G, n=26
[17] = (LA-419 5 μM)/(control), G894T G/T & T/T, n=23
[18] = (LA-419 5 μM)/(control), G894T G/T, n=18
[19] = (LA-419 5 μM)/(control), G894T T/T, n=5
[20] = (LA-419 5 μM)/(control), Intron 4 a/a, n=1
[21] = (LA-419 5 μM)/(control), Intron 4 a/a, n=3
[22] = (LA-419 5 μM)/(control), Intron 4 b/a, a/a, c/c, n=14
[23] = (LA-419 5 μM)/(control), Intron 4 b/a, n=10
[24] = (LA-419 5 μM)/(control), Intron 4 b/b, b/a, c/c, n=42
[25] = (LA-419 5 μM)/(control), Intron 4 b/b, n=31
[26] = (LA-419 5 μM)/(control), Intron 4 c/c, n=1
[27] = (LA-419 5 μM)/(control), T-786C C/C, n=1

For `CC(=O)SC1COC2C(O[N+](=O)[O-])COC12` (stereo not drawn) [LA-419, S-(6-Nitro-oxi-hexahydro-furo[3,2-b]furan-3-1-il)thioacetate], the “Fold difference ONOO− (mean ± sd)” value ((LA-419 1 μM)/(control), T-786C C/C, n=4) was 1.11 (0.44), the “Fold difference NO (mean ± sd)” value [1] was 1.15 (0.28) and the “Fold difference NO/ONOO− (mean ± sd)” value [1] was 1.45 (0.75). For the same compound, the “Fold difference ONOO− (mean ± sd)” value [1] was 0.91 (0.31), the “Fold difference NO (mean ± sd)” value [2] was 1.18 (0.30) and the “Fold difference NO/ONOO− (mean ± sd)” value [2] was 1.53 (0.78). For the same compound, the “Fold difference ONOO− (mean ± sd)” value [2] was 0.88 (0.28), the “Fold difference NO (mean ± sd)” value [3] was 1.14 (0.25) and the “Fold difference NO/ONOO− (mean ± sd)” value [3] was 1.39 (0.67). The “Fold difference ONOO− (mean ± sd)” value [3] was 0.91 (0.25), the “Fold difference NO (mean ± sd)” value [4] was 1.09 (0.18) and the “Fold difference NO/ONOO− (mean ± sd)” value [4] was 1.25 (0.52). For the same compound, the “Fold difference ONOO− (mean ± sd)” value [4] was 0.95 (0.22), the “Fold difference NO (mean ± sd)” value [5] was 1.13 (0.06) and the “Fold difference NO/ONOO− (mean ± sd)” value [5] was 1.40 (0.14). For the same compound, the “Fold difference ONOO− (mean ± sd)” value [5] was 0.81 (0.07), the “Fold difference NO (mean ± sd)” value [6] was 1.14 (0.06) and the “Fold difference NO/ONOO− (mean ± sd)” value [6] was 1.44 (0.16). For the same compound, the “Fold difference ONOO− (mean ± sd)” value [6] was 0.81 (0.07), the “Fold difference NO (mean ± sd)” value [7] was 1.14 (0.07) and the “Fold difference NO/ONOO− (mean ± sd)” value [7] was 1.44 (0.18). For the same compound, the “Fold difference ONOO− (mean ± sd)” value [7] was 0.80 (0.07), the “Fold difference NO (mean ± sd)” value [8] was 1.17 (0.06) and the “Fold difference NO/ONOO− (mean ± sd)” value [8] was 1.50 (0.18). For the same compound, the “Fold difference ONOO− (mean ± sd)” value [8] was 0.79 (0.08) and 0.79 (0.06), the “Fold difference NO (mean ± sd)” value [9] was 1.12 (0) and the “Fold difference NO/ONOO− (mean ± sd)” value [9] was 1.32 (0). For the same compound, the “Fold difference ONOO− (mean ± sd)” value [9] was 0.85 (0), the “Fold difference NO (mean ± sd)” value [10] was 1.13 (0.07) and the “Fold difference NO/ONOO− (mean ± sd)” value [10] was 1.37 (0.11). The “Fold difference ONOO− (mean ± sd)” value [10] was 0.83 (0.04), the “Fold difference NO (mean ± sd)” value [11] was 1.14 (0.05) and the “Fold difference NO/ONOO− (mean ± sd)” value [11] was 1.47 (0.19). For the same compound, the “Fold difference ONOO− (mean ± sd)” value [11] was 0.79 (0.12), the “Fold difference NO (mean ± sd)” value [12] was 1.08 (0) and the “Fold difference NO/ONOO− (mean ± sd)” value [12] was 1.59 (0). For the same compound, the “Fold difference ONOO− (mean ± sd)” value [12] was 0.67 (0), the “Fold difference NO (mean ± sd)” value [13] was 1.12 (0.07) and the “Fold difference NO/ONOO− (mean ± sd)” value [13] was 1.46 (0.14). The “Fold difference ONOO− (mean ± sd)” value [13] was 0.77 (0.08), the “Fold difference NO (mean ± sd)” value [14] was 1.12 (0.09) and the “Fold difference NO/ONOO− (mean ± sd)” value [14] was 1.29 (0.01). For the same compound, the “Fold difference ONOO− (mean ± sd)” value [14] was 0.87 (0.06), the “Fold difference NO (mean ± sd)” value [15] was 1.15 (0.06) and the “Fold difference NO/ONOO− (mean ± sd)” value [15] was 1.44 (0.16). The “Fold difference ONOO− (mean ± sd)” value [15] was 0.80 (0.07), the “Fold difference NO (mean ± sd)” value [16] was 1.16 (0.06) and the “Fold difference NO/ONOO− (mean ± sd)” value [16] was 1.48 (0.18). For the same compound, the “Fold difference ONOO− (mean ± sd)” value [16] was 0.79 (0.07), the “Fold difference NO (mean ± sd)” value [17] was 1.13 (0.06) and the “Fold difference NO/ONOO− (mean ± sd)” value [17] was 1.39 (0.13). For the same compound, the “Fold difference ONOO− (mean ± sd)” value [17] was 0.82 (0.07), the “Fold difference NO (mean ± sd)” value [18] was 1.13 (0.06) and the “Fold difference NO/ONOO− (mean ± sd)” value [18] was 1.39 (0.13). The “Fold difference ONOO− (mean ± sd)” value [18] was 0.82 (0.06), the “Fold difference NO (mean ± sd)” value [19] was 1.12 (0.07) and the “Fold difference NO/ONOO− (mean ± sd)” value [19] was 1.39 (0.13). The “Fold difference ONOO− (mean ± sd)” value [19] was 0.81 (0.08), the “Fold difference NO (mean ± sd)” value [20] was 1.17 (0) and the “Fold difference NO/ONOO− (mean ± sd)” value [20] was 1.39 (0). For the same compound, the “Fold difference ONOO− (mean ± sd)” value [20] was 0.85 (0), the “Fold difference NO (mean ± sd)” value [21] was 1.14 (0.04) and the “Fold difference NO/ONOO− (mean ± sd)” value [21] was 1.37 (0.04). For the same compound, the “Fold difference ONOO− (mean ± sd)” value [21] was 0.83 (0.03), the “Fold difference NO (mean ± sd)” value [22] was 1.16 (0.06) and the “Fold difference NO/ONOO− (mean ± sd)” value [22] was 1.44 (0.13). The “Fold difference ONOO− (mean ± sd)” value [22] was 0.81 (0.05), the “Fold difference NO (mean ± sd)” value [23] was 1.17 (0.07) and the “Fold difference NO/ONOO− (mean ± sd)” value [23] was 1.46 (0.14). For the same compound, the “Fold difference ONOO− (mean ± sd)” value [23] was 0.80 (0.06), the “Fold difference NO (mean ± sd)” value [24] was 1.14 (0.07) and the “Fold difference NO/ONOO− (mean ± sd)” value [24] was 1.43 (0.17). For the same compound, the “Fold difference ONOO− (mean ± sd)” value [24] was 0.81 (0.07), the “Fold difference NO (mean ± sd)” value [25] was 1.14 (0.07) and the “Fold difference NO/ONOO− (mean ± sd)” value [25] was 1.42 (0.18). The “Fold difference ONOO− (mean ± sd)” value [25] was 0.81 (0.08), the “Fold difference NO (mean ± sd)” value [26] was 1.17 (0) and the “Fold difference NO/ONOO− (mean ± sd)” value [26] was 1.53 (0). The “Fold difference ONOO− (mean ± sd)” value [26] was 0.77 (0), the “Fold difference NO (mean ± sd)” value [27] was 1.08 (0) and the “Fold difference NO/ONOO− (mean ± sd)” value [27] was 1.59 (0). For the same compound, the “Fold difference ONOO− (mean ± sd)” value [27] was 0.67 (0).
